Read-outs that look alike come from different tables or passages of the source.
Experiments:
NR1/NR2B NMDA receptors [1] = biological target: T1, NR1/NR2B NMDA receptors (Rattus norvegicus, UniProt P35439+Q00960); conditions: pregnanolone sulfate 100 μmol·l^−1, recombinant NR1/NR2B receptors, n=5, Petrovic et al., 2005, cited from earlier work
T1 construct: expressed in transfected cells; host or cells: HEK293 cells (ATCC CRL1573)

NR1/NR2B NMDA receptors [2] = biological target: T1, NR1/NR2B NMDA receptors; experiment: Patch-clamp inhibition of glutamate-elicited currents in HEK293 cells transfected with NR1-1a/NR2B; assay type: cell-based; conditions: for IC50: calculated from relative inhibition with Hill's coefficient 1.2; for IC50 / Relative inhibition effect (%): 5 cells; for Relative inhibition effect (%): 1 mmol·l^−1 glutamic acid
Description: The membrane potentials were maintained at −60 mV or +60 mV. Patch-clamp technique was used to record the currents from cultivated HEK293 cells with transfected NR1/NR2B NMDA receptors. Relative inhibition elicited by the compound from the example 2 was calculated from the formula (1−a/b)*100(%).
Degree of activated NMDA receptor inhibition by steroid cationic compounds was measured in vitro electrophysiologically on cultivated HEK293 cells (Human Embryonic Kidney 293 cells) 24-48 h after the transfection with DNA plasmids, coding NR1-1a and NR2B subunit of NMDA receptor. Transfected cells were identified by means of fluorescent green protein (GFP) fluorescence. Its genus was transfected together with the both receptor subunit genes.
Steroid-containing solutions were prepared from fresh solution (20 mmol·l^−1, of steroid dissolved in dimethyl-sulfoxide, DMSO), which was added to the extracellular solution containing 1 mmol·l^−1 glutamic acid and 10 μmol·l^−1 of glycine. Same concentrations of DMSO were added to all other extracellular solutions.
Current responses produced by extracellular application of glutamic acid solution (1 mmol·l^−1) were measured from the whole cell by patch-clamp technique, which is used for the study of transport of charged particles through model and also natural biological membranes. The currents were measured at membrane potential maintained at −60 mV and +60 mV.
HEK293 cells (American Type Culture Collection, ATTC No. CRL1573, Rockville, Md.) were cultivated in Opti-MEM® I media (Invitrogen) with addition of 5% fetal bovine serum at 37° C. and transfected with NR1-1a/NR2B/GFP plasmids, as described in the scientific literature (Cais et al., 2008). Same amounts (0.3 μg) of cDNA coding NR1, NR2 and GFP (green fluorescent protein) (pQBI 25, Takara, Japan) were mixed with 0.9 μl of Matra-A Reagent (IBA, Göttingen, Germany) and added to confluent HEK293 cells cultivated in v 24-pit cultivating plate. After trypsination, the cells were re-suspended in Opti-MEM® I containing 1% fetal bovine serum. Subsequently, 20 mmol·l^−1 MgCl2, 1 mmol D,L-2-amino-5-phosphonopentanoic acid, 3 mmol·l^−1 kynurenic acid was added to the mixture and cells were inoculated on the polylysine-coated glass plates having 25 mm in diameter. The following genes coding NMDA receptor subunits were used for transfection: NR1-1a (GenBank accession no. U08261) and NR2B (GenBank accession no. M91562).
HEK293 Cultured cells were used for electrophysiological investigations with a latency of 16-40 h after transfection. Whole-cell currents were measured by patch-clamp amplifier (Axopatch 1D; Axon Instruments, Inc. Foster City, USA) after capacitance and serial resistance (<10 MΩ) compensation to 80-90%. Agonist-induced responses were filtered to 1 kHz (8-pole Bessel filter; Frequency Devices, Haverhill, USA), digitized with sampling frequency of 5 kHz and analyzed by pClamp version 9 software (Axon Instruments, USA). Micropipettes made of borosilicate glass were filled with intracellular solution, containing 125 mmol·l^−1 D-glukonic acid, 15 mmol·l^−1 cesium chloride, 5 mmol·l^−1 EGTA, 10 mmol·l^−1 HEPES buffer, 3 mmol·l^−1 magnesium chloride, 0.5 mmol·l^−1 calcium chloride and 2 mmol·l^−1 magnesium-salt of ATP (pH adjusted to 7.2 by cesium hydroxide solution). Extracellular solution (ECS) contained 160 mmol·l^−1 sodium chloride, 2.5 mmol·l^−1 potassium chloride, 10 mmol·l^−1 HEPES, 10 mmol·l^−1 glucose, 0.2 mmol·l^−1 EDTA a 0.7 mmol·l^−1 calcium chloride (pH adjusted to 7.3 by sodium hydroxide solution). Glycine was added to both testing and control solution.

[3] = tested on: NMDA receptors on hipocampal neurones; conditions: pregnanolone sulfate 100 μmol·l^−1; responses elicited by NMDA; −60 mV; n=5; Petrovic et al., 2005; cited from earlier work
mice strain B6 = experiment: Spontaneous locomotor activity in the open-field test; assay type: in vivo; conditions: 10 mg/kg subcutaneously in cyclodextrin, 60 min session
Description: Animals were tracked with iTrack (Biosignal group, USA) and total path during this session was evaluated. The pregnanolone argininate was applied subcutaneously (dissolved in cyclodextrin) prior to behavioral observations at doses 10 mg/kg; control animals were injected with saline and cyclodextrin.

Long-Evans male rats = experiment: Carousel maze (active allothetic place avoidance, AAPA): locomotion and cognitive function; assay type: in vivo
Description: Effect of pregnanolone argininate and nitrate and action of dizocilpine (a non-competitive antagonist of NMDA receptors; standardly used as positive control and referred hereafter as dizocilpine) on the behavior of rats in Carousel maze (active allothetic place avoidance (AAPA)), a spatial task requiring spatial orientation and cognitive functions
The effect of compounds on cognitive behaviors and locomotion was assessed using Carousel maze (active allothetic place avoidance (AAPA) task), which requires intact hippocampi and ability of animals to navigate in space using distinct reference frames (spatial navigation and “cognitive coordination”) (Wesierska et al., 2005) and it also allows measuring changes in the accompanying locomotor activity. AAPA task training involves animals trained to move over a slowly rotating uniform circular arena, on which a prohibited sector is defined, entering which is punished by a mild footshock. A shock sector and its position can be determined solely by its relationship to distal orienting cues in the room (Stuchlik et al., 2008).
This task is highly dependent upon hippocampal formation, with unilateral reversible ablation of this structure with TTX leading to avoidance deficit (Cimadevilla et al., 2001). Animals solving this task should walk in a direction opposite to arena rotation; otherwise it would be repeatedly brought to a fixed sector by arena rotation. We conducted 4 acquisition session of AAPA task, during which the sector location was always reinforced and remained stable throughout the training. Each session lasted 20 min.
The effect was tested on 2-month-old Long-Evans male rats. Control animals obtained cyklodextrine (s.c.), experimental groups received subcutaneous (s.c.) injections of the compound from example 2 at doses 1 mg/kg (dissolved in cyclodextrin). Intraperitonal application of dizocilpine (a non-competitive NMDA receptor antagonist; showing significant neuroprotective activity but exerting cognition-disturbing and psychotomimetic effects) was used as a positive control. Dizocilpine was applied at doses 0.15 mg/kg. It is worth noting that dizocilpine (albeit its experimental neuroprotective activity) is often used to model schizophrenia-like behaviors in […] and it has been repeatedly shown to exert a dose-dependent learning deficit and hyperlocomotion.
Locomotor activity of animals was assessed in the AAPA as total distance traveled in the coordinate frame of the arena (without passive rotation) in each 20-min session.
Another parameter, which can be measured and which brings a spatial aspect to behavioral analysis, is number of entrances into prohibited sector (occasionally termed “number of errors”).

male mice strain B6 = experiment: Anesthetic effect after i.p. injection; assay type: in vivo; conditions: 100 mg/kg i.p. in β-cyclodextrine
Description: Anesthetic effect of 3α5β pregnanolon argininate was tested on 2-month-old male mice strain B6. Animals were randomly assigned to 3 groups per 7 animals each. The first group was injected i.p. with saline, the second group received i.p. cyclodextrine, the third group obtained received the pregnanolon argininate at a dose 100 mg/kg (dissolved in β-cyclodextrine).

[4] = dizocilpine 0.15 mg/kg intraperitoneal, positive control

T1 sequence (Q00960 27-1482, other chains not shown): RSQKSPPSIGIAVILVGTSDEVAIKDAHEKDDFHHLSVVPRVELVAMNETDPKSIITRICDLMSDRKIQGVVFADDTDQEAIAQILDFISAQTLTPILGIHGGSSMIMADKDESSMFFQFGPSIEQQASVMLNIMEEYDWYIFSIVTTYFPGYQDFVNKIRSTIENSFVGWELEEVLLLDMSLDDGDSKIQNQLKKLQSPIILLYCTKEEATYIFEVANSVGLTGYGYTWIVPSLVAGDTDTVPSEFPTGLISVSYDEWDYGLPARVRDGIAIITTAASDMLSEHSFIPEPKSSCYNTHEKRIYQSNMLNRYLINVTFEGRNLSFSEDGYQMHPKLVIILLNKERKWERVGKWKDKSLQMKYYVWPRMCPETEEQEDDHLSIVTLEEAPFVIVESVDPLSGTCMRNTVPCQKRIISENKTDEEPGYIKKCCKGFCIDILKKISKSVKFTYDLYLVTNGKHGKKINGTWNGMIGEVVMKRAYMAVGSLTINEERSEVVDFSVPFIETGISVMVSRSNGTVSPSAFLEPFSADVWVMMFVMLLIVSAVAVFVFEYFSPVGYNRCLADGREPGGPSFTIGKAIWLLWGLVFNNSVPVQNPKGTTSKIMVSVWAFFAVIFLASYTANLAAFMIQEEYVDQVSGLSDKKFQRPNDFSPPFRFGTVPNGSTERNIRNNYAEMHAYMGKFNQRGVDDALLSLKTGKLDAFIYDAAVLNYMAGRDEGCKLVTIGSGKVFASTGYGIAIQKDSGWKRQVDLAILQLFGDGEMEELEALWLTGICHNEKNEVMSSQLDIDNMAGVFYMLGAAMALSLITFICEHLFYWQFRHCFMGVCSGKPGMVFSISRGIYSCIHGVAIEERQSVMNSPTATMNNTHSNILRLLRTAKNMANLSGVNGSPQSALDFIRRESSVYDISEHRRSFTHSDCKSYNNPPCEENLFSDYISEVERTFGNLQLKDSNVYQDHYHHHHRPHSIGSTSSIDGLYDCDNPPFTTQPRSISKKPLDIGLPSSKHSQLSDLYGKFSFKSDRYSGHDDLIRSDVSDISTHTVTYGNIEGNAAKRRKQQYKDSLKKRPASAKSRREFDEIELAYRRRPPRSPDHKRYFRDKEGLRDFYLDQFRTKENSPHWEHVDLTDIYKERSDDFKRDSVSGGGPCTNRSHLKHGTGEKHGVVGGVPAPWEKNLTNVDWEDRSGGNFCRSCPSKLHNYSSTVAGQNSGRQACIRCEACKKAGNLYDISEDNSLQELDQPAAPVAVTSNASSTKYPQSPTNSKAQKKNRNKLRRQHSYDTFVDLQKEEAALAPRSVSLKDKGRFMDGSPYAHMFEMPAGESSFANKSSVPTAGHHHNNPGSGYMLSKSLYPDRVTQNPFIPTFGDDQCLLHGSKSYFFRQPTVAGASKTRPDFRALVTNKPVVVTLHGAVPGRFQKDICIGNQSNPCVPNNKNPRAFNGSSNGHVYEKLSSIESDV

In the case of “5β-pregnanolon-3α-yl-sulfate [Pregnanolone sulfate]”, the “Relative inhibition effect (%)” value (NR1/NR2B NMDA receptors [1]; listed as 5β-pregnanolon-3α-yl-sulfate) is listed as 67%, the “Relative inhibition effect (%)” value (NR1/NR2B NMDA receptors [1]; listed as pregnanolone sulfate) is listed as 67.2±8.2% and the IC50 (NR1/NR2B NMDA receptors [2]) is listed as 55 µM. For the same compound, the mean inhibition effect [3] was 71.3±5.0%.
For `CC(=O)O.CC(=O)O.CC(=O)[C@H]1CC[C@H]2[C@@H]3CC[C@@H]4C[C@H](OC(=O)[C@@H](N)CCCNC(=N)N)CC[C@]4(C)[C@H]3CC[C@]12C` [Example 2, 20-Oxo-5β-pregnan-3α-yl L-argininate diacetate salt], the “spontaneous locomotor activity (total path)” value (mice strain B6) was “did not significantly alter”, the “locomotor activity: total distance per session in AAPA” value (Long-Evans male rats; compound from example 2 1 mg/kg s.c. in cyclodextrin (nitrate dose not given), 20-min session, vs cyclodextrin controls, diacetate salt, 1 mg/kg) was “no significant effect” and the “locomotor activity: total distance per session in AAPA” value (Long-Evans male rats; compound from example 2 1 mg/kg s.c. in cyclodextrin (nitrate dose not given), 20-min session, vs cyclodextrin controls, listed as pregnanolone argininate, diacetate salt, 1 mg/kg) was “failed to exhibit either decrease or increase”. For the same compound, the “number of entrances into shock sector (spatial cognition)” value (shortened to “number of entrances into shock sector”) (Long-Evans male rats; compound from example 2 1 mg/kg s.c. in cyclodextrin (nitrate dose not given), vs cyclodextrin controls, diacetate salt, 1 mg/kg) was “no significant effect”, the “number of entrances into shock sector” value (Long-Evans male rats; compound from example 2 1 mg/kg s.c. in cyclodextrin (nitrate dose not given), vs cyclodextrin controls, listed as pregnanolone argininate, diacetate salt, 1 mg/kg) was “do not caused worsening” and the “time after injection to anesthesia” value (male mice strain B6) was 5 to 20 min. The “time after injection to decreased locomotor activity” value (male mice strain B6) was 3 to 15 min, the “time to spontaneous awakening” value (male mice strain B6) was 1 to 3 h and the “dependence of average inhibition on the maintained membrane potential” value (NR1/NR2B NMDA receptors [2]; 10 μmol·l^−1, FIG. 1B) was “independence”. For the same compound, the “reversibility of inhibition of the current response” value (NR1/NR2B NMDA receptors [2]; 10 μmol·l^−1 applied simultaneously with 1 mmol·l^−1 glutamic acid, −60 mV or +60 mV, FIG. 1A) was “reversible inhibition”, the IC50 (NR1/NR2B NMDA receptors [2]) was 5.3 µM and the “Relative inhibition effect (%)” value (NR1/NR2B NMDA receptors [2]; steroid 10 μmol·l^−1) was 69.2 ± 9.6%.
For `CC(=O)[C@H]1CC[C@H]2[C@@H]3CC[C@@H]4C[C@H](OC(=O)CN(C)C(=N)N)CC[C@]4(C)[C@H]3CC[C@]12C.Cl` [Example 5, 20-Oxo-5β-pregnan-3α-yl 2-(methylguanidino) acetate hydrochloride], the IC50 (NR1/NR2B NMDA receptors [2]) was 3.3 ± 0.7 µM and the “Relative inhibition effect (%)” value (NR1/NR2B NMDA receptors [2]; steroid 10 μmol·l^−1) was 79.2 ± 4.2%.
In the case of `CC(=O)[C@H]1CC[C@H]2[C@@H]3CC[C@@H]4C[C@H](OC(=O)CCC[N+](C)(C)C)CC[C@]4(C)[C@H]3CC[C@]12C.[Cl-]` [Example 6, 20-Oxo-5β-pregnan-3α-yl 4-(trimethylammonium) butanoate chloride], the IC50 (NR1/NR2B NMDA receptors [2]) is reported as 5.9 µM and the “Relative inhibition effect (%)” value (NR1/NR2B NMDA receptors [2]; steroid 10 μmol·l^−1) is reported as 65.4 ± 3.4%.
For `CCC(CCC(=O)O[C@@H]1CC[C@@]2(C)[C@H](CC[C@@H]3[C@@H]2CC[C@]2(C)[C@@H](C(C)=O)CC[C@@H]32)C1)[N+](C)(C)C.[Cl-]` (stereo partly drawn) [Example 7, 20-Oxo-5β-pregnan-3α-yl 4-(trimethylammonium) hexanoate chloride], the IC50 (NR1/NR2B NMDA receptors [2]) was 23.6 µM and the “Relative inhibition effect (%)” value (NR1/NR2B NMDA receptors [2]; steroid 100 μmol·l^−1, −60 mV) was 85.6 +/− 2.3%.
In the case of `CC(=O)[C@H]1CC[C@H]2[C@@H]3CC[C@@H]4C[C@H](OC(=O)C[N+](C)(C)C)CC[C@]4(C)[C@H]3CC[C@]12C.[Cl-]` [Example 8, 20-Oxo-5β-pregnan-3α-yl-2-(trimethylammonium) acetate hydrochloride], the IC50 (NR1/NR2B NMDA receptors [2]) is reported as 22.4 µM and the “Relative inhibition effect (%)” value (NR1/NR2B NMDA receptors [2]; steroid 30 μmol·l^−1, −60 mV) is reported as 57.0 ± 9.6%.
For `CC(=O)C1CCC2C3CC[C@@H]4C[C@H]([N+](C)(C)C)CC[C@]4(C)C3CC[C@]12C.[Cl-]` (stereo partly drawn) [Example 10, 3-(Trimethylammonium)-5β-pregnan-20-one chloride], the melting point was 237 to 240 °C (dec.), the IC50 (NR1/NR2B NMDA receptors [2]) was 107 µM and the “Relative inhibition effect (%)” value (NR1/NR2B NMDA receptors [2]; steroid 100 μmol·l^−1, −60 mV) was 69.2 ± 9.6%.
With `C[C@]12N[C@H](Cc3ccccc31)c1ccccc12` [dizocilpine, reference compound] the “locomotor activity: total distance per session in AAPA” value (Long-Evans male rats; [4]) was “stimulated the locomotor activity”, the “number of entrances into shock sector” value (Long-Evans male rats; [4]) was “dose-dependently disrupted” and the “number of entrances into shock sector” value (Long-Evans male rats; dizocilpine 0.15 mg/kg intraperitoneal, positive control, listed as MK-801) was “disrupts”.
